In patent publication US20120129870A1, “PIPERAZINYL DERIVATIVES USEFUL AS MODULATORS OF THE NEUROPEPTIDE Y2 RECEPTOR” (priority 2007, published 2012):

Molecular target: T1, NPY Y2 receptor (Homo sapiens, UniProt P49146)
T1 sequence (P49146 1-381): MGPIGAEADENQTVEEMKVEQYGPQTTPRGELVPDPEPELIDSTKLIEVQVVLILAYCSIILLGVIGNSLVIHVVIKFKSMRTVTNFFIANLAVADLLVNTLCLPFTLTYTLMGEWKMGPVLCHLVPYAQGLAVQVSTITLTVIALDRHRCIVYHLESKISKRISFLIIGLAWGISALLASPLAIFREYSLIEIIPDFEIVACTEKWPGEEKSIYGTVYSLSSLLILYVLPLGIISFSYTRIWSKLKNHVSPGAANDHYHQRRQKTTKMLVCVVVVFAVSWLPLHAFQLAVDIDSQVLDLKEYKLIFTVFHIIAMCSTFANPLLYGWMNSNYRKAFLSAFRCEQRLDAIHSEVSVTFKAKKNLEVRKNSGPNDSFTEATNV
Assay: Neuropeptide Y2 radioligand binding assay ([125I]PYY, KAN-Ts membranes)
Parameters: endogenous in cells; host or cells: KAN-Ts cells (membrane preparation)
Conditions: KAN-Ts membranes endogenously expressing Y2, [125I]PYY (80 pM), 1 h at rt
Method: KAN-Ts endogenously expressing Y2 receptors were used for the radioligand binding assay. Cells were grown to confluence on 150 cm^2 tissue culture plates, washed with phosphate-buffered saline (PBS), and scraped into 50 mL tubes. After centrifugation, the supernatant was aspirated, and the pellets frozen and stored at −80° C. Thawed pellets were homogenized with a polytron tissue grinder for 15 sec in 20 mM Tris-HCl, 5 mM EDTA. The homogenate was centrifuged at 800×g for 5 min and the collected supernatant was recentrifuged at 25000×g for 25 min. The resulting pellet was resuspended in binding buffer (20 mM HEPES, 120 mM NaCl, 0.22 mM KH2PO4, 1.3 mM CaCl2, 0.8 mM MgSO4). Membranes were incubated with [^125I]PYY (80 pM) in the presence or absence of test compound for 1 h at rt. The reaction was stopped by filtration through GF/C filter plates pre-soaked in 0.3% polyethylenimine and subsequently washed with Tris 50 mM, 5 mM EDTA buffer. Plates were dried for 1 h in a 55° C. oven, scintillation fluid was added and the radioactivity was counted in a Packard TopCount. Specific binding to the NPY receptor subtypes was determined by radioactivity that was bound in the presence of […]. Each binding experiment was repeated three to eight times, each in duplicate. IC50 values (i.e. concentration of unlabelled peptide or antagonist required to compete for 50% of specific binding to the radioligand) were calculated using the GraphPad Prism software (GraphPad Software Inc., San Diego Calif.) with a fit to a sigmoidal dose response curve. Apparent K, values were calculated as Ki=IC50/(1+C/KD), where C is concentration of the radioligand.

IC50	Structure (SMILES)
35 nM	CCC(CC)C(=O)Nc1ccc(N2CCN(C(c3ccccc3)c3nc(C(C)C)no3)CC2)c(F)c1 (stereo not shown) [Compound 241]
220 nM	CCC(CC)C(=O)Nc1ccc(N2CCN(C(c3ccccc3)c3ncno3)CC2)c(F)c1 (stereo not shown) [Compound 231, 2-Ethyl-N-{3-fluoro-4-[4-([1,2,4]-oxadiazol-5-yl-phenyl-methyl)-piperazin-1-yl]-phenyl}-butyramide]
260 nM	CCC(CC)C(=O)Nc1ccc(N2CCN(C(c3ccc(C#N)cc3)c3ncco3)CC2)c(F)c1 (stereo not shown) [Compound 146, N-(4-{4-[(4-Cyano-phenyl)-oxazol-2-yl-methyl]-piperazin-1-yl}-3-fluoro-phenyl)-2-ethyl-butyramide]
380 nM	CCC(CC)C(=O)Nc1ccc(N2CCN(C(C(C)=O)c3ccccc3)CC2)c(F)c1 (stereo not shown) [Compound 232, 2-Ethyl-N-{3-fluoro-4-[4-(2-oxo-1-phenyl-propyl)-piperazin-1-yl]-phenyl}-butyramide]
430 nM	Cc1nc(C(c2ccc(OC(F)(F)F)cc2)N2CCN(c3ccc(NC(=O)C4CCOC4)cc3F)CC2)no1 (stereo not shown) [Compound 280]
340 nM	O=C(Nc1ccc(N2CCN(C(c3ccccc3)c3ncco3)CC2)c(F)c1)C1CCCC1 (single isomer, unassigned) [Compound 126, Cyclopentanecarboxylic acid {3-fluoro-4-[4-(oxazol-2-yl-phenyl-methyl)-piperazin-1-yl]-phenyl}-amide]
160 nM	CCC(CC)C(=O)Nc1ccc(N2CCN(C(c3ccc(Cl)cc3)c3ncco3)CC2)c(F)c1 (stereo not shown) [Compound 157]
> 10000 nM	CCC(CC)C(=O)Nc1ccc(N2CCN(C(C#N)c3ccccn3)CC2)c(F)c1 (stereo not shown) [Compound 138, N-{4-[4-(Cyano-pyridin-2-yl-methyl)-piperazin-1-yl]-3-fluoro-phenyl}-2-ethyl-butyramide]
430 nM	CCC(CC)C(=O)Nc1ccc(N2CCN(C(c3ncco3)C3CCCCC3)CC2)c(F)c1 (stereo not shown) [Compound 122, N-{4-[4-(Cyclohexyl-oxazol-2-yl-methyl)-piperazin-1-yl]-3-fluoro-phenyl}-2-ethyl-butyramide]
41 nM	CCC(CC)C(=O)Nc1ccc(N2CCN(C(C3=N[C@H](C(=O)OC)CO3)c3ccccc3)CC2)c(F)c1 (stereo partly shown) [Compound 179, 2-({4-[4-(2-Ethyl-butyrylamino)-2-fluoro-phenyl]-piperazin-1-yl}-phenyl-methyl)-4,5-dihydro-oxazole-4-carboxylic acid methyl ester]

Second part, the molecule before the results:

Structure (SMILES)	IC50
CC[C@@H](C)C(=O)Nc1ccc(N2CCN(C(c3ccccc3)c3ncco3)CC2)c(C#N)c1 (stereo in doubt) [Compound 93, N-{3-Cyano-4-[4-(oxazol-2-yl-phenyl-methyl)-piperazin-1-yl]-phenyl}-2-methyl-butyramide]	32 nM
O=C(Nc1ccc(N2CCN(C(c3ccccc3)c3ncco3)CC2)c(F)c1)C1CCCCC1 (stereo not shown) [Compound 107, Cyclohexanecarboxylic acid {3-fluoro-4-[4-(oxazol-2-yl-phenyl-methyl)-piperazin-1-yl]-phenyl}-amide]	1200 nM
O=C(Nc1ccc(N2CCN(C(c3ccccc3)c3ncco3)CC2)c(F)c1)C1CCC1 (stereo not shown) [Compound 73, Cyclobutanecarboxylic acid {3-fluoro-4-[4-(oxazol-2-yl-phenyl-methyl)-piperazin-1-yl]-phenyl}-amide]	180 nM
CC(C)C(=O)Nc1ccc(N2CCN(C(c3ccccc3)c3ncco3)CC2)c(C#N)c1 (stereo not shown) [Compound 87, N-{3-Cyano-4-[4-(oxazol-2-yl-phenyl-methyl)-piperazin-1-yl]-phenyl}-isobutyramide]	54 nM
Cc1cc(NC(=O)C2CCC2)ccc1N1CCN(C(c2ccccc2)c2ncco2)CC1 (stereo not shown) [Compound 76, Cyclobutanecarboxylic acid {3-methyl-4-[4-(oxazol-2-yl-phenyl-methyl)-piperazin-1-yl]-phenyl}-amide]	1400 nM
CCC(CC)C(=O)Nc1ccc(N2CCN(C(c3ccccc3)C3CCOC3)CC2)c(F)c1 (stereo not shown) [Compound 114, 2-Ethyl-N-(3-fluoro-4-{4-[phenyl-(tetrahydro-furan-3-yl)-methyl]-piperazin-1-yl}-phenyl)-butyramide]	460 nM
CCN(CC)C(=O)Cc1ccc(N2CCN(C(c3ccccc3)c3ccccc3)CC2)c(F)c1 [Compound 51, 2-[4-(4-Benzhydryl-piperazin-1-yl)-3-fluoro-phenyl]-N,N-diethyl-acetamide]	1550 nM
CCC(CC)C(=O)Nc1ccc(N2CCN(C(c3ccccc3)C3C(C)C3(Cl)Cl)CC2)c(F)c1 (stereo not shown) [Compound 115, N-(4-{4-[(2,2-Dichloro-3-methyl-cyclopropyl)-phenyl-methyl]-piperazin-1-yl}-3-fluoro-phenyl)-2-ethyl-butyramide]	450 nM
CCC(CC)C(=O)Nc1ccc(N2CCN(C(c3ccccc3)C3CCCC3)CC2)c(F)c1 (stereo not shown) [Compound 83, N-{4-[4-(Cyclopentyl-phenyl-methyl)-piperazin-1-yl]-3-fluoro-phenyl}-2-ethyl-butyramide]	200 nM
CC(=O)Nc1ccc(N2CCN(C(c3ccccc3)c3ncco3)CC2)c(F)c1 (stereo not shown) [Compound 104, N-{3-Fluoro-4-[4-(oxazol-2-yl-phenyl-methyl)-piperazin-1-yl]-phenyl}-acetamide]	> 10000 nM
CCC(CC)C(=O)Nc1ccc(N2CCN(C(c3ccccc3)C3CC3)CC2)c(F)c1 (stereo not shown) [Compound 53, N-{4-[4-(Cyclopropyl-phenyl-methyl)-piperazin-1-yl]-3-fluoro-phenyl}-2-ethyl-butyramide]	78 nM
CCC(CC)C(=O)Nc1ccc(N2CCN(C(c3ccc(OC)cc3)C3CC3)CC2)c(F)c1 (stereo not shown) [Compound 84, N-(4-{4-[Cyclopropyl-(4-methoxy-phenyl)-methyl]-piperazin-1-yl}-3-fluoro-phenyl)-2-ethyl-butyramide]	290 nM
Cc1cccc(Nc2ccc(N3CCN(C(c4ccccc4)c4ncco4)CC3)c(F)c2)n1 (stereo not shown) [Compound 62, {3-Fluoro-4-[4-(oxazol-2-yl-phenyl-methyl)-piperazin-1-yl]-phenyl}-(6-methyl-pyridin-2-yl)-amine]	4700 nM
CCC(CC)C(=O)Nc1ccc(N2CCN(C(c3ncco3)C3CCCC3)CC2)c(F)c1 (stereo not shown) [Compound 117, N-{4-[4-(Cyclopentyl-oxazol-2-yl-methyl)-piperazin-1-yl]-3-fluoro-phenyl}-2-ethyl-butyramide]	310 nM
CCC(CC)NC(=O)c1ccc(N2CCN(C(c3ccccc3)c3ncco3)CC2)c(F)c1 (stereo not shown) [Compound 46, N-(1-Ethyl-propyl)-3-fluoro-4-[4-(oxazol-2-yl-phenyl-methyl)-piperazin-1-yl]-benzamide]	1200 nM
CCC(CC)C(=O)Nc1ccc(N2CCN(C(c3ccc(F)cc3)c3ccc(F)cc3)CC2)c(F)c1 [Compound 12, N-(4-{4-[Bis-(4-fluoro-phenyl)-methyl]-piperazin-1-yl}-3-fluoro-phenyl)-2-ethyl-butyramide]	330 nM

Same assay, conditions: apparent Ki=IC50/(1+C/KD)

Ki	Structure (SMILES)
150 nM	CCC(CC)C(=O)Nc1ccc(N2CCN(C(c3ccc(F)cc3)c3ccc(F)cc3)CC2)c(C#N)c1 [Compound 307, N-(4-{4-[Bis(4-fluorophenyl)methyl]piperazin-1-yl}-3-cyanophenyl)-2-ethylbutanamide]
250 nM	CN(C)CC(=O)Nc1ccc(N2CCN(C(c3ccccc3)c3ccccc3)CC2)c(C#N)c1 [Compound 300, N-[4-(4-Benzhydryl-piperazin-1-yl)-3-cyano-phenyl]-2-dimethylamino-acetamide]
